Measurements from ChEMBL document CHEMBL2177104, “Identification of antitubercular benzothiazinone compounds by ligand-based design” (J Med Chem, 2012).
≈ marks a conversion by molar mass, not a printed value. Calls of active or inactive are those of the source. No cut-off for these calls is given here.

Experiments:
[1] = Chemical stability in buffer; type: physicochemical
[2] = tested on: Plasma; assay: Metabolic stability in human plasma; type: ADME, cell-free
[3] = tested on: Mycolicibacterium smegmatis; assay: Antimycobacterial activity against Mycobacterium smegmatis 700084 after 48 hrs by broth microdilution assay; type: functional; details: Mycolicibacterium smegmatis, 700084, 48 h
[4] = Antiproliferative activity against human HUVEC cells after 72 hrs by methylene blue staining; type: cell-based
[5] = Antiproliferative activity against human K562 cells after 72 hrs by electronic cell analysis; type: cell-based
[6] = tested on: Plasma; assay: Metabolic stability in mouse plasma; type: ADME, cell-free
[7] = Cytotoxicity against human HeLa cells after 72 hrs by methylene blue staining; type: cell-based
[8] = tested on: Liver microsomes; assay: Metabolic stability in human liver microsomes; type: ADME, Microsome
[9] = tested on: Mycolicibacterium fortuitum; assay: Antimycobacterial activity against Mycobacterium fortuitum B; type: functional
[10] = tested on: Liver; assay: Metabolic stability in mouse liver microsomes; type: ADME, Microsome
[11] = Cytotoxicity against human HEK293 cells after 24 hrs by MTT assay; type: cell-based
[12] = Cytotoxicity against human HepG2 cells after 24 hrs by MTT assay; type: cell-based
[13] = Therapeutic index, ratio of CC50 for human HeLa cells to MIC for Mycobacterium smegmatis 700084; type: cell-based; details: read-out: TI
[14] = Therapeutic index, ratio of GI50 for human K562 cells to MIC for Mycobacterium smegmatis 700084; type: cell-based; details: read-out: TI
[15] = Therapeutic index, ratio of GI50 for human HUVEC cells to MIC for Mycobacterium smegmatis 700084; type: cell-based; details: read-out: TI
[16] = Kinetic solubility of the compound at pH 7.4; type: physicochemical; details: buffer; for solubility kinetic: read-out: Kinetic_solubility
[17] = tested on: Mycolicibacterium smegmatis; assay: Ratio of MIC for Mycobacterium smegmatis 700084 in […] to MIC for Mycobacterium smegmatis 700084 in MHB medium; type: functional
[18] = tested on: Mycolicibacterium aurum; assay: Antimycobacterial activity against Mycobacterium aurum SB66; type: functional, organism-based
[19] = tested on: Mycobacterium tuberculosis; assay: Ratio of isoniazid MIC to compound MIC for Mycobacterium tuberculosis H37Rv; type: functional
[20] = tested on: Mycobacterium tuberculosis; assay: Antimycobacterial activity against Mycobacterium tuberculosis H37Rv expressing GFP; type: functional

SMILES	Stability [1]	Stability [2]	MIC [3]	GI50 at 72 h [4]	GI50 at 72 h [5]	Stability [6]	CC50 at 72 h [7]	Stability [8]	MIC [9]	Stability [10]	CC50 at 24 h [11]	CC50 at 24 h [12]	solubility kinetic [16]	other results
CCCOCC1COC2(CCN(c3nc(=O)c4cc(C(F)(F)F)cc([N+](=O)[O-])c4s3)CC2)O1 (centres undefined)	99%	98%	0.004 µg/mL (≈ 0.00817 µM)	> 50 µM	> 50 µM	103%	43 µM	6%	0.0031 µg/mL (≈ 0.00633 µM)	9%	> 10 µM	> 10 µM		
CN(C)c1ccc(CN(C)c2nc(=O)c3cc(C(F)(F)F)cc([N+](=O)[O-])c3s2)cc1	95%	90%	0.001 µg/mL (≈ 0.00228 µM)	> 50 µM	> 50 µM	104%	> 50 µM	6%	0.00625 µg/mL (≈ 0.0143 µM)	8%	> 10 µM	> 10 µM		selectivity ratio [13]: > 50000; selectivity ratio [14]: > 50000; selectivity ratio [15]: > 50000
O=C(c1ccoc1)N1CCN(c2nc(=O)c3cc(C(F)(F)F)cc([N+](=O)[O-])c3s2)CC1													21.8 µM (≈ 9.91 µg/mL)	
COC(=O)[C@@H]1OC2(CCN(c3nc(=O)c4cc(C(F)(F)F)cc([N+](=O)[O-])c4s3)CC2)O[C@H]1c1ccccc1	82%	90%	0.015 µg/mL (≈ 0.0272 µM)	> 50 µM	> 50 µM	88%	> 50 µM		0.00625 µg/mL (≈ 0.0113 µM)		> 10 µM	> 10 µM		
CN(C)C(=O)C1CCN(c2nc(=O)c3cc(C(F)(F)F)cc([N+](=O)[O-])c3s2)CC1														Kinetic_solubility [16]: soluble
O=c1nc(N2CCC(c3ccccc3)CC2)sc2c([N+](=O)[O-])cc(C(F)(F)F)cc12	82%	96%	0.004 µg/mL (≈ 0.00919 µM)	> 50 µM	> 50 µM	71%	> 50 µM	120%	0.0125 µg/mL (≈ 0.0287 µM)	75%	> 10 µM	> 10 µM	0.06 µM (≈ 0.0261 µg/mL)	selectivity ratio [13]: > 12500; selectivity ratio [14]: > 12500; selectivity ratio [15]: > 12500; Ratio [17]: 3
CCN(CCN(C)C)c1nc(=O)c2cc(C(F)(F)F)cc([N+](=O)[O-])c2s1													10.6 µM (≈ 4.14 µg/mL)	
Cc1ccc(CNc2nc(=O)c3cc(C(F)(F)F)cc([N+](=O)[O-])c3s2)n1C	14%	108%	0.125 µg/mL (≈ 0.314 µM)	17 µM	21 µM	93%	48 µM	28%	0.05 µg/mL (≈ 0.126 µM)	37%	> 10 µM	> 10 µM		
COC(=O)C1CN(c2nc(=O)c3cc(C(F)(F)F)cc([N+](=O)[O-])c3s2)CCC12OC[C@H](C)O2 (some centres undefined)	98%	51%	0.015 µg/mL (≈ 0.0306 µM)	16 µM	22 µM	56%	36 µM	81%	0.0125 µg/mL (≈ 0.0255 µM)	29%	> 10 µM	> 10 µM		
O=c1nc(N2CCN(c3nccs3)CC2)sc2c([N+](=O)[O-])cc(C(F)(F)F)cc12	98%	99%	0.25 µg/mL (≈ 0.564 µM)			111%		42%	0.025 µg/mL (≈ 0.0564 µM)	13%	> 10 µM	> 10 µM		
O=c1nc(NCc2ccco2)sc2c([N+](=O)[O-])cc(C(F)(F)F)cc12													1.63 µM (≈ 0.605 µg/mL)	
C[C@H]1COC2(CCN(c3nc(=O)c4cc(C(F)(F)F)cc([N+](=O)[O-])c4s3)CC2)O1 [BTZ-043]	98%	107%	0.008 µg/mL (≈ 0.0185 µM)	8 µM	11 µM	97%	> 50 µM	98%	0.00156 µg/mL (≈ 0.00362 µM)	45%	> 10 µM	> 10 µM	6.8 µM (≈ 2.93 µg/mL)	Activity [18]: inactive; selectivity ratio [13]: > 6250; selectivity ratio [14]: 1190; selectivity ratio [15]: 1190; Ratio [19]: 20; MIC [20]: 0.001 µg/mL (≈ 0.00232 µM)
O=c1nc(NCc2ccc3c(c2)OCCO3)sc2c([N+](=O)[O-])cc(C(F)(F)F)cc12	91%	86%	0.004 µg/mL (≈ 0.0091 µM)	20 µM	37 µM	114%	41 µM	43%	0.012 µg/mL (≈ 0.0273 µM)	32%	> 10 µM	> 10 µM		
CN(Cc1ccoc1)c1nc(=O)c2cc(C(F)(F)F)cc([N+](=O)[O-])c2s1														Kinetic_solubility [16]: soluble
CN(C(=O)CN1CCN(c2nc(=O)c3cc(C(F)(F)F)cc([N+](=O)[O-])c3s2)CC1)c1ccccc1	78%	95%	0.015 µg/mL (≈ 0.0296 µM)	18 µM	30 µM	115%	39 µM	13%	0.0125 µg/mL (≈ 0.0246 µM)	2%	> 10 µM	> 10 µM	11.9 µM (≈ 6.04 µg/mL)	
O=c1nc(N2CCC(F)(F)CC2)sc2c([N+](=O)[O-])cc(C(F)(F)F)cc12	101%	64%	0.25 µg/mL (≈ 0.632 µM)			92%		61%	> 0.1 µg/mL	80%	> 10 µM	> 10 µM	8.1 µM (≈ 3.2 µg/mL)	
CN(c1nc(=O)c2cc(C(F)(F)F)cc([N+](=O)[O-])c2s1)[C@H]1CCN(Cc2ccccc2)C1	96%	92%	0.004 µg/mL (≈ 0.00861 µM)	18 µM	30 µM	114%	38 µM	6%		7%	> 10 µM	> 10 µM	2.97 µM (≈ 1.38 µg/mL)	
Cc1ccc(CNc2nc(=O)c3cc(C(F)(F)F)cc([N+](=O)[O-])c3s2)o1													1.82 µM (≈ 0.701 µg/mL)	
